Assay results reported in ChEMBL document CHEMBL5143515, “Identification of new halogen-containing 2,4-diphenyl indenopyridin-5-one derivative as a boosting agent for the anticancer responses of clinically available topoisomerase inhibitors” (Eur J Med Chem, 2022).
Calls of active or inactive are those of the source. The calls are words filed in the database; no cut-off is given here.

Tests used:
[1] = system: HCT-15; experiment: Antiproliferative activity against human HCT-15 cells after 72 hrs by EZ-Cytox colorimetric assay; format: functional, cell-based; conditions: HCT-15, 72 h
[2] = Toxicity in mouse assessed as reduction in number of white blood cells at 4 mg/kg; format: organism-based; conditions: in vivo
[3] = Genotoxicity in human HCT-15 cells assessed as production of gamma-H2AX at 2 to 5 uM and measured by western blot analysis; format: toxicity, cell-based; conditions: hct-15, 5 µM, dose 2-5 µM
[4] = Genotoxicity in human HCT-15 cells assessed as production of fragmented DNA tails at 2 to 5 uM and measured in presence of 0.2 uM etoposide by comet assay; format: toxicity, cell-based; conditions: hct-15, 5 µM, dose 2-5 µM
[5] = Toxicity in mouse assessed as reduction in number of absolute neutrophil count at 4 mg/kg in presence of 2 mg/kg etoposide; format: organism-based; conditions: in vivo
[6] = system: HCT-15; experiment: Synergistic antiproliferative activity against human HCT-15 cells at 5 uM in presence of 0.2 uM etoposide after 72 hrs by WST-1 assay; format: functional, cell-based
[7] = Toxicity in mouse assessed as reduction in number of red blood cells at 4 mg/kg; format: organism-based; conditions: in vivo
[8] = system: Calf thymus DNA; experiment: Binding affinity to calf thymus DNA assessed as DNA intercalation at 5 to 40 uM by fluorescence based EtBr-displacement assay; format: nucleic-acid assay; conditions: Bos taurus; dose 5-40 µM
[9] = Toxicity in mouse assessed as reduction in hemoglobin level at 4 mg/kg; format: organism-based; conditions: in vivo
[10] = target: T1, DNA topoisomerase 1 (Homo sapiens) (UniProt P11387); experiment: Inhibition of recombinant human topoisomerase 1 assessed as relaxation of supercoiled plasmid pBR322 DNA at 100 uM by agarose gel electrophoresis (reference value: 83.2%)
T1 sequence (whole entry): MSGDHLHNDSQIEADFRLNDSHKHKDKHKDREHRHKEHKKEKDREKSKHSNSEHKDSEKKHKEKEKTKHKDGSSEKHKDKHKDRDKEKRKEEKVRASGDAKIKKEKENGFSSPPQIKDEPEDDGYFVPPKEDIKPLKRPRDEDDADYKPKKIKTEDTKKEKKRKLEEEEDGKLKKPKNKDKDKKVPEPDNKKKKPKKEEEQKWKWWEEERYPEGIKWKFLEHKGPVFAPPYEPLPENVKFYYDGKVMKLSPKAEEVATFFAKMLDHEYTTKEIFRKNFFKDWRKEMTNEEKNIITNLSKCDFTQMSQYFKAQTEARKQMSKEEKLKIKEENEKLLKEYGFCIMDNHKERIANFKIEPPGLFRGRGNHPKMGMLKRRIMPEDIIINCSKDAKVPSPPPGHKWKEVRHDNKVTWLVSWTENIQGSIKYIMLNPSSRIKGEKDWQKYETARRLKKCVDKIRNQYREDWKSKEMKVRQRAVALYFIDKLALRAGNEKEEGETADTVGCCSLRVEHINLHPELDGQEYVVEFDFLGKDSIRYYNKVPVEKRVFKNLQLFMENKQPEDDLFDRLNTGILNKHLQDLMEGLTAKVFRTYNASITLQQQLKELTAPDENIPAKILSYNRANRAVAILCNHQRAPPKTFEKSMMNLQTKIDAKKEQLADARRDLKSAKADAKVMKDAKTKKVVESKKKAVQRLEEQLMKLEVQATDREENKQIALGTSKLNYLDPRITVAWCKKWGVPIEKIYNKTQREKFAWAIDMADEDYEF

[11] = Genotoxicity in human HCT-15 cells assessed as production of gamma-H2AX at 2 to 5 uM and measured in presence of 1 nM camptothecin by western blot analysis; format: toxicity, cell-based; conditions: hct-15, 5 µM, dose 2-5 µM
[12] = system: Calf thymus DNA; experiment: Binding affinity to calf thymus DNA assessed as DNA intercalation by measuring Stem-Volmer quenching constant at 0.01 to 0.1 uM by Hoechst displacement assay; format: nucleic-acid assay; conditions: Bos taurus; dose 0.01-0.1 µM
[13] = Cytotoxicity against mouse M2-10B4 cells after 72 hrs by EZ-Cytox colorimetric assay; format: toxicity, cell-based

Which IC50 [1] does the source give for O=C1c2ccccc2-c2nc(-c3ccc(Br)cc3)cc(-c3ccccc3)c21 here?
The IC50 was 7.84 µM.

And the Activity [2]?
Its Activity is “Non-Toxic”.

What about the Activity [3] of the same molecule?
Its Activity is “Non-Toxic”.

What about the Activity [4] of the same molecule?
Its Activity is “Non-Toxic”.

What about the Activity [5] of the same molecule?
The Activity was “Non-Toxic”.

And the Activity [6]?
Its Activity is “Active”.

What about the Activity [7] of the same molecule?
The Activity was “Non-Toxic”.

And the Activity [8]?
The Activity was “Active”.

What about the Activity [9] of the same molecule?
Its Activity is “Non-Toxic”.

And the inhibition [10]?
Its inhibition is 87%.

What about the Activity [11] of the same molecule?
Its Activity is “Non-Toxic”.

And the KSV [12]?
The KSV was 2.09 10^6/M.

And the IC50 at 72 h [13]?
The IC50 at 72 h was over 10 µM.
